{
  "source": "patent US7183291B2",
  "about": "(Council of Scientific and Industrial Research, priority 1999, dated 2007)",
  "key": {"normal erythrocytes": {"tested_on": "normal erythrocytes", "test": "Reduced glutathione (GSH) in normal human erythrocytes after 3 h incubation", "format": "cell-based", "text": "(§1) Drug induced haemolysis is a serious complication in persons deficient in G-6-PD enzyme. The presence of reduced glutathione (GSH) in erythrocytes control the level of oxidative metabolites. Therefore, drugs, which cause lesser oxidation of GSH level are safe. […] G-6-PD deficiency was detected by the fluorescent spot screening test and confirmed by the enzyme assay method. Heparinised blood samples were collected from each individual and after centrifugation, the packed cells were washed three times with cold saline. […] GSH levels were estimated by the method of Bentler et al [Improved Method for the Determination of Blood Glutathione, J. Lab."}, "[1]": {"conditions": "oral labelled primaquine; cited from earlier work"}, "rodent malaria [2]": {"tested_on": "rodent malaria", "conditions": "given directly to the insect; cited from earlier work"}, "[3]": {"tested_on": "P. cynomolgi B gametocytes", "test": "Gametocytocidal test: infectivity of gametocytes from treated P. cynomolgi infected Rhesus monkeys to An. stephensi mosquitoes", "format": "in vivo", "method": "For the gametocytocidal test, batches of 3–4 day old An. Stephensi were allowed to feed on P. cynomolgi infected Rhesus monkeys at appropriate gametocytaemia level. […] […] Mosquitoes were maintained as 26±1° C. under optimal insectary conditions. The infectivity rate and the oocyst counts were recorded on day 8. Mosquitoes were further maintained in the insectary to record the formation of sporozoites and the absence of sporozoites in some of the batches was also ensured by inoculation of mosquito homogenates into native monkeys."}, "[4]": {"tested_on": "G-6-PD deficient erythrocytes", "test": "Reduced glutathione (GSH) in G-6-PD deficient human erythrocytes after 3 h incubation", "format": "cell-based", "conditions": "25 and 50 μg/ml of PQ and equivalent doses, P<0.001", "text": "as §1"}, "rodent malaria [5]": {"tested_on": "rodent malaria", "conditions": "in vivo; cited from earlier work"}, "[6]": {"test": "Methaemoglobin levels in Beagle dogs after 7-day oral treatment", "method": "Colony bred beagle dogs were maintained in the kennel house of the Institute and fed with a standard diet.\nTreatment was administered once daily for seven doses (day 0–6), the day of the first dose being day 0. […] 5 ml. blood was collected from beagle dogs on day 0, 3, 7, 13 and 25 using potassium-oxalate crystals as anticoagulant. All the estimations/tests were conducted on the same day of collection of blood. Methaemoglobin was assayed by the method of Evelyn and Malloy (1938, J. Biol. Chem., 126, 655–662)."}, "rodent malaria [7]": {"tested_on": "rodent malaria", "conditions": "in vivo; cited from earlier work", "remark": "listed apart in the source"}, "[8]": {"conditions": "1.00 mg/kg at 0 hr, feeding +24 hr"}, "[9]": {"conditions": "1.00 mg/kg at 0 hr, feeding +48 hr"}, "[10]": {"conditions": "1.00 mg/kg at 0 hr, feeding −1 hr (pre-treatment)"}, "[11]": {"conditions": "3.16 mg/kg at 0 hr, feeding +24 hr"}, "[12]": {"conditions": "3.16 mg/kg at 0 hr, feeding −1 hr (pre-treatment)"}},
  "note": "Several values for one entry are separate records, joined by “and”; a condition that tells them apart may be missing. Equal values may be shown once.",
  "data": [
    {"smiles": "COc1cc(NC(C)CCCN)c2ncccc2c1", "note": "(stereo not drawn) [Primaquine, 8-(4-amino-1-methylbutylamino)-6-methoxy quinoline, reference compound]", "values": [
      {"measurement": "concentration at which fall in GSH levels reached statistical significance", "setting": "normal erythrocytes", "result": 10000, "unit": "ng/mL"},
      {"measurement": "GSH (mg %) Mean ± SE", "setting": "normal erythrocytes; dose 1.00 μg/ml", "result": "43.50 ± 5.70", "unit": "mg %"},
      {"measurement": "GSH (mg %) Mean ± SE", "setting": "normal erythrocytes; dose 5.00 μg/ml", "result": "39.00 ± 6.16", "unit": "mg %"},
      {"measurement": "radioactivity found in liver tissue", "setting": "[1]", "result": 45, "unit": "%"},
      {"measurement": "direct sporontocidal activity", "setting": "rodent malaria [2]", "result": "quite inactive"},
      {"measurement": "loss of infectivity", "setting": "[3]; 1.00 mg/kg", "result": "~98", "unit": "%"},
      {"measurement": "No. of mosquitoes infected/dissected", "setting": "[3]; 1.00 mg/kg at 0 hr, feeding +5 hr", "result": "32/44 and 36/46"},
      {"measurement": "No. of mosquitoes infected/dissected", "setting": "[3]; [8]", "result": "0/55 and 3/45"},
      {"measurement": "Parasitaemia/mm^3 Asexual", "setting": "[3]; [8]", "result": "28048 /mm^3 and 26832 /mm^3"},
      {"measurement": "% infectivity", "setting": "[3]; [9]", "result": "(0) %"},
      {"measurement": "No. of mosquitoes infected/dissected", "setting": "[3]; [9]", "result": "0/40"},
      {"measurement": "Parasitaemia/mm^3 Asexual", "setting": "[3]; [9]", "result": "15332 /mm^3 and 12140 /mm^3"},
      {"measurement": "oocyst no. per gut (Mean ± SD)", "setting": "[3]; [9]", "result": "Nil"},
      {"measurement": "No. of mosquitoes infected/dissected", "setting": "[3]; [10]", "result": "25/34 and 32/40"},
      {"measurement": "Parasitaemia/mm^3 Asexual", "setting": "[3]; [10]", "result": "42394 /mm^3 and 36166 /mm^3"},
      {"measurement": "No. of mosquitoes infected/dissected", "setting": "[3]; 3.16 mg/kg at 0 hr, feeding +5 hr", "result": "0/53 and 15/46"},
      {"measurement": "% infectivity", "setting": "[3]; [11]", "result": "(0) %"},
      {"measurement": "No. of mosquitoes infected/dissected", "setting": "[3]; [11]", "result": "0/33 and 0/43"},
      {"measurement": "Parasitaemia/mm^3 Asexual", "setting": "[3]; [11]", "result": "23112 /mm^3 and 21204 /mm^3"},
      {"measurement": "Parasitaemia/mm^3 Gametocytes", "setting": "[3]; [11]", "result": "749 /mm^3 and 670 /mm^3"},
      {"measurement": "oocyst no. per gut (Mean ± SD)", "setting": "[3]; [11]", "result": "Nil"},
      {"measurement": "No. of mosquitoes infected/dissected", "setting": "[3]; [12]", "result": "37/51 and 20/47"},
      {"measurement": "Parasitaemia/mm^3 Asexual", "setting": "[3]; [12]", "result": "29680 /mm^3 and 16824 /mm^3"},
      {"measurement": "Parasitaemia/mm^3 Gametocytes", "setting": "[3]; [12]", "result": "1230 /mm^3 and 1026 /mm^3"},
      {"measurement": "gametocytocidal action", "setting": "[3]; 3.16 mg/kg, +24 hr", "result": "complete gametocytocidal action"},
      {"measurement": "decrease in GSH level compared to controls", "setting": "[4]", "result": "statistically significant"},
      {"measurement": "blood schizontocidal activity", "setting": "rodent malaria [5]", "result": "has blood schizontocidal activities"},
      {"measurement": "increase of mean Met-Hb values over day 0", "setting": "[6]; Group I, 1.0 mg/kg, day 7", "result": 3.7, "unit": "fold"},
      {"measurement": "increase of Met-Hb over corresponding day 0 value", "setting": "[6]; Group II, 3.0 mg/kg", "result": 10.5, "unit": "fold"},
      {"measurement": "gametocytocidal activity", "setting": "rodent malaria [7]", "result": "very potent gametocytocidal agent"}
    ]}
  ]
}
